From ChEMBL document CHEMBL6103624, “Design, Synthesis, and Biological Evaluation of Marchantin C-NO Donor Hybrids for Overcoming Pgp-Mediated Drug Resistance by Targeting Lysosome” (J Med Chem, 2025)
The source made the active and inactive calls. No cut-off for these calls is given here.

Assays:
HepG2 = assay: Antiproliferative activity against human HepG2 cells assessed as inhibition of cell growth incubated for 48 hrs by MTT assay; assay type: functional, cell-based; conditions: HepG2, 48 h
MCF7 [1] = assay: Induction of NO release in human MCF7 cells at 100 uM measured for 5 hrs by Griess reagent assay; assay type: functional, cell-based
NCI/ADR-RES [2] = assay: Induction of NO release in human MCF7ADR cells at 100 uM measured for 5 hrs by Griess reagent assay; assay type: functional, cell-based
NCI/ADR-RES [3] = assay: Induction of NO release in human MCF7ADR cells at 100 uM by Griess reagent assay; assay type: functional, cell-based; conditions: time <= 10.0 hrs
A549 [4] = assay: Antiproliferative activity against human A549 cells assessed as inhibition of cell growth incubated for 48 hrs by MTT assay; assay type: functional, cell-based; conditions: A549, 48 h
MCF7 [5] = assay: Antiproliferative activity against human MCF7 cells assessed as inhibition of cell growth incubated for 48 hrs by MTT assay; assay type: functional, cell-based; conditions: MCF7, 48 h
NCI/ADR-RES [6] = assay: Antiproliferative activity against human MCF7ADR cells assessed as inhibition of cell growth incubated for 48 hrs by MTT assay; assay type: functional, cell-based
PC-3 = assay: Antiproliferative activity against human PC-3 cells assessed as inhibition of cell growth incubated for 48 hrs by MTT assay; assay type: functional, cell-based; conditions: PC-3, 48 h
NCI/ADR-RES [7] = assay: Induction of cell cycle arrest in human MCF7ADR cells assessed as accumulation of cells at G2/M phase at 30 nM incubated for 24 hrs by flow cytometry analysis (reference value: 11.2%); assay type: functional
[8] = molecular target: T1, ATP-dependent translocase ABCB1 (Homo sapiens, UniProt P08183); assay: Inhibition of P-gp-mediated rhodamine-123 efflux in human MCF-7/ADR cells assessed as increase in Rh123 accumulation incubated for 4 hrs by flow cytometry analysis; assay type: cell-based; conditions: at 10 to 50 nM, dose 10-50 nM
T1 sequence (P08183 whole entry): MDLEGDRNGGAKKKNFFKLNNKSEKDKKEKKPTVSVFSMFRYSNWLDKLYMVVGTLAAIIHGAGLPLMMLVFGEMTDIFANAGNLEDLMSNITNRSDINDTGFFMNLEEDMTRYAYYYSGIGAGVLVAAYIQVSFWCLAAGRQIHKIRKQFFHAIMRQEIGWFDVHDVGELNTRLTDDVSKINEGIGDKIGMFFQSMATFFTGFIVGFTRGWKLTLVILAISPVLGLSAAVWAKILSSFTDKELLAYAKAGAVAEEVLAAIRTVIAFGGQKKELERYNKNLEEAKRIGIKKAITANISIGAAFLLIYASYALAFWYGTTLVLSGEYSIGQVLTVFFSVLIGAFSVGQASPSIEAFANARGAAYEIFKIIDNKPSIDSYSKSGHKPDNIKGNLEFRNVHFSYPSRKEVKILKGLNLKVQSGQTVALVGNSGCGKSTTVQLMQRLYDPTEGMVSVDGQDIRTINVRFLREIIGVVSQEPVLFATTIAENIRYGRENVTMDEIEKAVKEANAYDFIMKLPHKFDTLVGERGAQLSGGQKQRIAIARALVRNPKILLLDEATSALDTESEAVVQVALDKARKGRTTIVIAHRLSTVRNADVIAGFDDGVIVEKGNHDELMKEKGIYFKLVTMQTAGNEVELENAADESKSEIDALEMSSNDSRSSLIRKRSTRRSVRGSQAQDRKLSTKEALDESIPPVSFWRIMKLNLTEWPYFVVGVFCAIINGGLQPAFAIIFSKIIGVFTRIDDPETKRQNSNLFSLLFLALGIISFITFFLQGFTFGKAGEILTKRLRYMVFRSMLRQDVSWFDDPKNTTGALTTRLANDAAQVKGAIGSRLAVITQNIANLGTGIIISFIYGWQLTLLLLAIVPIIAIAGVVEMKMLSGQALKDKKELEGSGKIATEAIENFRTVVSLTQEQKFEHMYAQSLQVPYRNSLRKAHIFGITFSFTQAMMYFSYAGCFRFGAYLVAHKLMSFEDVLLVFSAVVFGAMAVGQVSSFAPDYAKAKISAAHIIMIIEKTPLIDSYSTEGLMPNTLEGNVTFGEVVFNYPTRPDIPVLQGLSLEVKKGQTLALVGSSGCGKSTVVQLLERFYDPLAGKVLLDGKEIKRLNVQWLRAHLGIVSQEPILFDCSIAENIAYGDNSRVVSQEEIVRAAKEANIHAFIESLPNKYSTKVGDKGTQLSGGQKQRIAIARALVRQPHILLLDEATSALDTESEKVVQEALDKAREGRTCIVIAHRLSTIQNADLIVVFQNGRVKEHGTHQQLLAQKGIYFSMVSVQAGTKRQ

A549 [9] = assay: Upregulation of P-gp expression in human A549 cells at 1 to 4 uM incubated for 24 hrs by Western blot analysis; assay type: functional, cell-based; conditions: dose 1-4 µM
[10] = Induction of NO release in lysosome of human MCF-7/ADR cells assessed as increase in green fluorescence intensity at 100 nM by Lyso-NO probe based laser scanning confocal microscopic analysis; assay type: subcellular; conditions: 0.1 µM, time 1-3 hrs
[11] = Toxicity in BALB/c mouse xenografted with human MCF7ADR cells assessed as lung damage at 1.25 to 5 mg/kg, ip measured for 21 days by H and E staining based analysis; assay type: organism-based; conditions: in vivo, 504 h, dose 1.25-5 mg/kg, time 21 day
NCI/ADR-RES [12] = assay: Antitumor activity against human MCF7ADR cells xenografted in BALB/c mouse at 1.25 mg/kg, ip measured for 21 days; assay type: functional, organism-based; conditions: time 21.0 day
[13] = Selectivity index, ratio of IC50 for antiproliferative activity against human MCF7 cells assessed as inhibition of cell growth to IC50 for antiproliferative activity against human MCF7ADR cells assessed as inhibition of cell growth; assay type: functional
NCI/ADR-RES [14] = assay: Upregulation of Bax expression in human MCF7ADR cells incubated for 24 hrs by Western blot analysis; assay type: functional, cell-based; conditions: dose 25-50 nM
NCI/ADR-RES [15] = assay: Induction of cell cycle arrest in human MCF7ADR cells assessed as accumulation of cells at G2/M phase at 40 nM incubated for 24 hrs by flow cytometry analysis (reference value: 11.2%); assay type: functional
NCI/ADR-RES [16] = assay: Induction of ROS production in human MCF-7/ADR cells in presence of elacridar; assay type: functional, cell-based
NCI/ADR-RES [17] = assay: Downregulation of Bcl-2 expression in human MCF7ADR cells incubated for 24 hrs by Western blot analysis; assay type: functional, cell-based; conditions: dose 25-50 nM
NCI/ADR-RES [18] = assay: Induction of ROS production in human MCF-7/ADR cells in presence of NAC; assay type: functional, cell-based
NCI/ADR-RES [19] = assay: Upregulation of Caspase-3 expression in human MCF7ADR cells at 25 to 50 nM incubated for 24 hrs by Western blot analysis; assay type: functional, cell-based; conditions: dose 25-50 nM
[20] = Cytotoxicity against human BEAS-2B cells assessed as inhibition of cell growth incubated for 48 hrs by MTT assay; assay type: toxicity, cell-based
NCI/ADR-RES [21] = assay: Antitumor activity against human MCF7ADR cells xenografted in BALB/c mouse assessed as inhibition of tumor volume at 5 mg/kg, ip measured for 21 days; assay type: functional; conditions: 504 h, time 21 day
[22] = Toxicity in BALB/c mouse xenografted with human MCF7ADR cells assessed as spleen damage at 1.25 to 5 mg/kg, ip measured for 21 days by H and E staining based analysis; assay type: organism-based; conditions: in vivo, 504 h, dose 1.25-5 mg/kg, time 21 day
[23] = Cytotoxicity against human MCF-10A cells assessed as inhibition of cell growth incubated for 48 hrs by MTT assay; assay type: toxicity, cell-based
[24] = Toxicity in BALB/c mouse xenografted with human MCF7ADR cells assessed as change in body weight at 1.25 to 5 mg/kg, ip measured for 21 days; assay type: organism-based; conditions: in vivo, 504 h, dose 1.25-5 mg/kg, time 21 day
Lysosomal membrane = assay: Induction of lysosomal membrane permeabilization in human MCF7ADR cells assessed as increase fluorescence intensity incubated for 6 hrs by LysoTracker red probe based laser scanning confocal microscopic analysis; assay type: subcellular; conditions: dose 50-100 nM
NCI/ADR-RES [25] = assay: Induction of apoptosis in human MCF7ADR cells assessed as increase in PARP1 cleavage at 25 to 50 nM incubated for 24 hrs by Western blot analysis; assay type: functional, cell-based; conditions: dose 25-50 nM
[26] = Drug localization in lysosome of human MCF-7/ADR cells assessed as emission of yellow fluorescence incubated for 1 hr by DAPI staining based laser scanning confocal microscopic analysis; assay type: ADME, subcellular
A549/TR [27] = assay: Antiproliferative activity against human A549/Taxol cells assessed as inhibition of cell growth incubated for 48 hrs by MTT assay; assay type: functional, cell-based
NCI/ADR-RES [28] = assay: Induction of apoptosis in human MCF7ADR cells at 25 to 50 nM incubated for 24 hrs by Annexin V-FITC/PI staining based flow cytometry analysis; assay type: functional; conditions: dose 25-50 nM
NCI/ADR-RES [29] = assay: Upregulation of P-gp expression in human MCF-7/ADR cells at 25 to 100 nM incubated for 24 hrs by Western blot analysis; assay type: functional, cell-based; conditions: dose 25-100 nM
NCI/ADR-RES [30] = assay: Induction of cell cycle arrest in human MCF7ADR cells assessed as accumulation of cells at G2/M phase at 20 nM incubated for 24 hrs by flow cytometry analysis (reference value: 11.2%); assay type: functional
[31] = Toxicity in BALB/c mouse xenografted with human MCF7ADR cells assessed as kidney damage at 1.25 to 5 mg/kg, ip measured for 21 days by H and E staining based analysis; assay type: organism-based; conditions: in vivo, 504 h, dose 1.25-5 mg/kg, time 21 day
MCF7 [32] = assay: Upregulation of P-gp expression in human MCF7 cells at 25 to 100 nM incubated for 24 hrs by Western blot analysis; assay type: functional, cell-based; conditions: dose 25-100 nM
NCI/ADR-RES [33] = assay: Antitumor activity against human MCF7ADR cells xenografted in ip dosed BALB/c mouse assessed as decrease in ki67 expression measured for 21 days; assay type: functional, organism-based; conditions: dose 1.25-5 mg/kg, time 21.0 day
[34] = Toxicity in BALB/c mouse xenografted with human MCF7ADR cells assessed as liver damage at 1.25 to 5 mg/kg, ip measured for 21 days by H and E staining based analysis; assay type: organism-based; conditions: in vivo, 504 h, dose 1.25-5 mg/kg, time 21 day
A549/TR [35] = assay: Upregulation of P-gp expression in human A549/Taxol cells at 1 to 4 uM incubated for 24 hrs by Western blot analysis; assay type: functional, cell-based; conditions: dose 1-4 µM
[36] = molecular target: T1, ATP-dependent translocase ABCB1; assay: Inhibition of P-gp-mediated rhodamine-123 efflux in human MCF7 cells assessed as increase in Rh123 accumulation incubated for 4 hrs by flow cytometry analysis; assay type: cell-based; conditions: mcf7, 4 h, at 10 to 50 nM, dose 10-50 nM
[37] = Selectivity index, ratio of IC50 for antiproliferative activity against human A549 cells assessed as inhibition of cell growth to IC50 for antiproliferative activity against human A549/Taxol cells assessed as inhibition of cell growth; assay type: functional
NCI/ADR-RES [38] = assay: Upregulation of m-CTSD expression in human MCF7ADR cells at 50 to 100 nM incubated for 24 hrs by Western blot analysis; assay type: functional, cell-based; conditions: dose 50-100 nM
NCI/ADR-RES [39] = assay: Antitumor activity against human MCF7ADR cells xenografted in BALB/c mouse at 1.25 to 5 mg/kg, ip measured for 21 days; assay type: functional, organism-based; conditions: dose 1.25-5 mg/kg, time 21.0 day
[40] = Toxicity in BALB/c mouse xenografted with human MCF7ADR cells assessed as heart damage at 1.25 to 5 mg/kg, ip measured for 21 days by H and E staining based analysis; assay type: organism-based; conditions: in vivo, 504 h, dose 1.25-5 mg/kg, time 21 day
NCI/ADR-RES [41] = assay: Induction of NO release in human MCF7ADR cells by DAF-FM DA probe based analysis; assay type: functional, cell-based; conditions: dose 50-100 nM
NCI/ADR-RES [42] = assay: Induction of apoptosis in human MCF7ADR cells incubated for 24 hrs by Annexin V-FITC/PI staining based flow cytometry analysis; assay type: functional, cell-based; conditions: dose 25-50 nM
[43] = Induction of NO release in lysosome of human A549/Taxol cells assessed as increase in green fluorescence intensity at 100 nM by Lyso-NO probe based laser scanning confocal microscopic analysis; assay type: subcellular; conditions: 0.1 µM, time 1-3 hrs
NCI/ADR-RES [44] = assay: Inhibition of colony formation in human MCF7ADR cells assessed as reduction in colony growth at 40 nM incubated for 12 days in presence of hemoglobin by crystal violet staining based assay; assay type: functional, cell-based; conditions: time 12.0 day
NCI/ADR-RES [45] = assay: Inhibition of colony formation in human MCF7ADR cells assessed as reduction in colony growth at 40 to 50 nM incubated for 12 days by crystal violet staining based assay; assay type: functional, cell-based; conditions: dose 40-50 nM, time 12.0 day

## O=[N+]([O-])OCC(COc1cccc2c1Oc1cccc(c1)CCc1ccc(O)c(c1)Oc1ccc(cc1)CC2)O[N+](=O)[O-] (stereo not drawn)
HepG2
  IC50: > 20 µM
MCF7 [1]
  Activity: inactive
NCI/ADR-RES [2]
  Activity: inactive
NCI/ADR-RES [3]
  Activity: Time-dependent-effect
A549 [4]
  IC50: > 40 µM
MCF7 [5]
  IC50: > 20 µM
NCI/ADR-RES [6]
  IC50: > 20 µM
PC-3
  IC50: 11.7 µM

## O=C(/N=c1\c[n+](-c2ccccc2)[n-]o1)Oc1cccc2c1Oc1cccc(c1)CCc1ccc(O)c(c1)Oc1ccc(cc1)CC2
HepG2
  IC50: > 20 µM
MCF7 [1]
  Activity: inactive
NCI/ADR-RES [2]
  Activity: inactive
NCI/ADR-RES [3]
  Activity: Time-dependent-effect
A549 [4]
  IC50: > 40 µM
MCF7 [5]
  IC50: > 20 µM
NCI/ADR-RES [6]
  IC50: > 20 µM
PC-3
  IC50: > 20 µM

## O=S(=O)(c1ccccc1)c1c(OCCCOc2cccc3c2Oc2cccc(c2)CCc2ccc(O)c(c2)Oc2ccc(cc2)CC3)no[n+]1[O-]
NCI/ADR-RES [7]
  Activity: 20.3%
HepG2
  IC50: 6.57 µM
[8]
  inhibition (INH): Dose-dependent-effect
A549 [9]
  Activity: Active
[10]
  Activity: Time-dependent-effect
[11]
  Activity: Non-toxic
NCI/ADR-RES [12]
  Activity: Active
[13]
  Ratio IC50: 883
NCI/ADR-RES [14]
  Activity: Dose-dependent-effect
NCI/ADR-RES [15]
  Activity: 25.3%
NCI/ADR-RES [16]
  Activity: Active
NCI/ADR-RES [17]
  Activity: Dose-dependent-effect
NCI/ADR-RES [18]
  Activity: Active
NCI/ADR-RES [19]
  Activity: Active
[20]
  IC50 at 48 h: 14.8 µM
NCI/ADR-RES [21]
  inhibition in vivo at 5 mg/kg: 62.7%
[22]
  Activity: Non-toxic
[23]
  IC50 at 48 h: 14.3 µM
[24]
  Activity: Non-toxic
Lysosomal membrane
  Activity: Dose-dependent-effect
NCI/ADR-RES [25]
  Activity: Active
[26]
  Drug uptake: Active
A549/TR [27]
  IC50: 1.43 µM
NCI/ADR-RES [28]
  Activity: 8.6%
NCI/ADR-RES [29]
  Activity: Active
NCI/ADR-RES [30]
  Activity: 18.1%
[31]
  Activity: Non-toxic
MCF7 [32]
  Activity: inactive
NCI/ADR-RES [33]
  Activity: Dose-dependent-effect
[34]
  Activity: Non-toxic
A549/TR [35]
  Activity: Active
[36]
  inhibition (INH): Dose-dependent-effect
[37]
  Ratio IC50: 17
NCI/ADR-RES [38]
  Activity: Active
NCI/ADR-RES [39]
  Activity: Active; Displayed Strong Antitumor Activity Than Ptx
NCI/ADR-RES [2]
  Activity: Active
NCI/ADR-RES [3]
  Activity: Time-dependent-effect
[40]
  Activity: Non-toxic
A549 [4]
  IC50: 23.8 µM
NCI/ADR-RES [41]
  Activity: Dose-dependent-effect
NCI/ADR-RES [42]
  Activity: Dose-dependent-effect
MCF7 [5]
  IC50: 21.2 µM
[43]
  Activity: Time-dependent-effect
NCI/ADR-RES [44]
  inhibition: Active
NCI/ADR-RES [45]
  inhibition: Active
NCI/ADR-RES [6]
  IC50: 0.024 µM
PC-3
  IC50: 3.36 µM
